In brackets after ≈: the same amount, converted by molar mass.
Key:
Assay type in all cases: functional
Staphylococcus aureus [1] = assay: Antibacterial activity against methicillin resistant Staphylococcus aureus clinical isolate assessed as inhibition of bacterial growth incubated for 24 hrs
Staphylococcus aureus [2] = assay: Antibacterial activity against Staphylococcus aureus clinical isolate assessed as inhibition of bacterial growth incubated for 24 hrs
Staphylococcus aureus [3] = assay: Antibacterial activity against Staphylococcus aureus ATCC 25923 assessed as inhibition of bacterial growth incubated for 24 hrs
Staphylococcus aureus [4] = assay: Antibacterial activity against Staphylococcus aureus ATCC 29213 assessed as inhibition of bacterial growth incubated for 24 hrs
Enterococcus faecalis = assay: Antibacterial activity against Enterococcus faecalis clinical isolate assessed as inhibition of bacterial growth incubated for 24 hrs
Klebsiella pneumoniae = assay: Antibacterial activity against Klebsiella pneumoniae clinical isolate assessed as inhibition of bacterial growth incubated for 24 hrs
Escherichia coli [5] = assay: Antibacterial activity against Escherichia coli clinical isolate assessed as inhibition of bacterial growth incubated for 24 hrs
Escherichia coli [6] = assay: Antibacterial activity against Escherichia coli ATCC 25922 assessed as inhibition of bacterial growth incubated for 24 hrs
Pseudomonas aeruginosa [7] = assay: Antibacterial activity against Pseudomonas aeruginosa clinical isolate assessed as inhibition of bacterial growth incubated for 24 hrs
Pseudomonas aeruginosa [8] = assay: Antibacterial activity against Pseudomonas aeruginosa ATCC 27853 assessed as inhibition of bacterial growth incubated for 24 hrs
Acinetobacter baumannii = assay: Antibacterial activity against Acinetobacter baumannii clinical isolate assessed as inhibition of bacterial growth incubated for 24 hrs

SMILES | MIC (Staphylococcus aureus [1]) | MIC (Staphylococcus aureus [2]) | MIC (Staphylococcus aureus [3]) | MIC (Staphylococcus aureus [4]) | MIC (Enterococcus faecalis) | MIC (Klebsiella pneumoniae) | MIC (Escherichia coli [5]) | MIC (Escherichia coli [6]) | MIC (Pseudomonas aeruginosa [7]) | MIC (Pseudomonas aeruginosa [8]) | MIC (Acinetobacter baumannii)
N#CCc1cc2c(cc1F)c(=O)c(C(=O)O)cn2Cc1ccc(Cl)cc1 | 256 µg/mL (≈ 690 µM) | 256 µg/mL (≈ 690 µM) | 0.5 µg/mL (≈ 1.35 µM) | 4 µg/mL (≈ 10.8 µM) | 256 µg/mL (≈ 690 µM) | 256 µg/mL (≈ 690 µM) | 256 µg/mL (≈ 690 µM) | 256 µg/mL (≈ 690 µM) | 0.5 µg/mL (≈ 1.35 µM) | 256 µg/mL (≈ 690 µM) | 16 µg/mL (≈ 43.2 µM)
N#CCc1cc2c(cc1F)c(=O)c(C(=O)O)cn2Cc1cc(F)ccc1F | 256 µg/mL (≈ 688 µM) | 4 µg/mL (≈ 10.7 µM) | 256 µg/mL (≈ 688 µM) | 256 µg/mL (≈ 688 µM) | 256 µg/mL (≈ 688 µM) | 16 µg/mL (≈ 43 µM) | 256 µg/mL (≈ 688 µM) | 256 µg/mL (≈ 688 µM) | 256 µg/mL (≈ 688 µM) | 256 µg/mL (≈ 688 µM) | 64 µg/mL (≈ 172 µM)
CCn1cc(C(=O)O)c(=O)c2cc(F)c(CC#N)c(F)c21 | 1 µg/mL (≈ 3.42 µM) | 0.25 µg/mL (≈ 0.855 µM) | 16 µg/mL (≈ 54.7 µM) | 1 µg/mL (≈ 3.42 µM) | 8 µg/mL (≈ 27.4 µM) | 16 µg/mL (≈ 54.7 µM) | 4 µg/mL (≈ 13.7 µM) | 0.5 µg/mL (≈ 1.71 µM) | 1 µg/mL (≈ 3.42 µM) | 4 µg/mL (≈ 13.7 µM) | 0.5 µg/mL (≈ 1.71 µM)
N#CCc1cc2c(cc1F)c(=O)c(C(=O)O)cn2Cc1c(F)cccc1F | 4 µg/mL (≈ 10.7 µM) | 4 µg/mL (≈ 10.7 µM) | 4 µg/mL (≈ 10.7 µM) | 4 µg/mL (≈ 10.7 µM) | 2 µg/mL (≈ 5.37 µM) | 8 µg/mL (≈ 21.5 µM) | 32 µg/mL (≈ 86 µM) | 2 µg/mL (≈ 5.37 µM) | 4 µg/mL (≈ 10.7 µM) | 4 µg/mL (≈ 10.7 µM) | 8 µg/mL (≈ 21.5 µM)
CCCCCCCCn1cc(C(=O)O)c(=O)c2cc(F)c(CC(=O)O)cc21 | 4 µg/mL (≈ 10.6 µM) | 16 µg/mL (≈ 42.4 µM) | 4 µg/mL (≈ 10.6 µM) | 4 µg/mL (≈ 10.6 µM) | 2 µg/mL (≈ 5.3 µM) | 0.5 µg/mL (≈ 1.32 µM) | 2 µg/mL (≈ 5.3 µM) | 2 µg/mL (≈ 5.3 µM) | 1 µg/mL (≈ 2.65 µM) | 2 µg/mL (≈ 5.3 µM) | 4 µg/mL (≈ 10.6 µM)
N#CCc1cc2c(cc1F)c(=O)c(C(=O)O)cn2Cc1ccc(C(F)(F)F)cc1 | 16 µg/mL (≈ 39.6 µM) | 8 µg/mL (≈ 19.8 µM) | 2 µg/mL (≈ 4.95 µM) | 4 µg/mL (≈ 9.89 µM) | 0.5 µg/mL (≈ 1.24 µM) | 64 µg/mL (≈ 158 µM) | 256 µg/mL (≈ 633 µM) | 8 µg/mL (≈ 19.8 µM) | 16 µg/mL (≈ 39.6 µM) | 8 µg/mL (≈ 19.8 µM) | 64 µg/mL (≈ 158 µM)
N#CCc1cc2c(cc1F)c(=O)c(C(=O)O)cn2CCN1CCOCC1 | 8 µg/mL (≈ 22.3 µM) | 16 µg/mL (≈ 44.5 µM) | 1 µg/mL (≈ 2.78 µM) | 4 µg/mL (≈ 11.1 µM) | 16 µg/mL (≈ 44.5 µM) | 8 µg/mL (≈ 22.3 µM) | 16 µg/mL (≈ 44.5 µM) | 4 µg/mL (≈ 11.1 µM) | 2 µg/mL (≈ 5.57 µM) | 16 µg/mL (≈ 44.5 µM) | 8 µg/mL (≈ 22.3 µM)
CCCCCn1cc(C(=O)O)c(=O)c2cc(F)c(CC#N)cc21 | 0.5 µg/mL (≈ 1.58 µM) | 256 µg/mL (≈ 809 µM) | 0.25 µg/mL (≈ 0.79 µM) | 8 µg/mL (≈ 25.3 µM) | 256 µg/mL (≈ 809 µM) | 1 µg/mL (≈ 3.16 µM) | 16 µg/mL (≈ 50.6 µM) | 0.25 µg/mL (≈ 0.79 µM) | 1 µg/mL (≈ 3.16 µM) | 4 µg/mL (≈ 12.6 µM) | 256 µg/mL (≈ 809 µM)
N#CCc1cc2c(cc1F)c(=O)c(C(=O)O)cn2Cc1ccccn1 | 32 µg/mL (≈ 94.9 µM) | 256 µg/mL (≈ 759 µM) | 1 µg/mL (≈ 2.96 µM) | 8 µg/mL (≈ 23.7 µM) | 8 µg/mL (≈ 23.7 µM) | 4 µg/mL (≈ 11.9 µM) | 8 µg/mL (≈ 23.7 µM) | 0.25 µg/mL (≈ 0.741 µM) | 0.5 µg/mL (≈ 1.48 µM) | 16 µg/mL (≈ 47.4 µM) | 2 µg/mL (≈ 5.93 µM)
O=C(O)Cc1cc2c(cc1F)c(=O)c(C(=O)O)cn2Cc1ccccc1 | 16 µg/mL (≈ 45 µM) | 32 µg/mL (≈ 90.1 µM) | 16 µg/mL (≈ 45 µM) | 64 µg/mL (≈ 180 µM) | 32 µg/mL (≈ 90.1 µM) | 4 µg/mL (≈ 11.3 µM) | 64 µg/mL (≈ 180 µM) | 8 µg/mL (≈ 22.5 µM) | 32 µg/mL (≈ 90.1 µM) | 8 µg/mL (≈ 22.5 µM) | 64 µg/mL (≈ 180 µM)
N#CCc1cc2c(cc1F)c(=O)c(C(=O)O)cn2CC(=O)N1CCCCC1 | 4 µg/mL (≈ 10.8 µM) | 128 µg/mL (≈ 345 µM) | 16 µg/mL (≈ 43.1 µM) | 4 µg/mL (≈ 10.8 µM) | 64 µg/mL (≈ 172 µM) | 16 µg/mL (≈ 43.1 µM) | 16 µg/mL (≈ 43.1 µM) | 4 µg/mL (≈ 10.8 µM) | 1 µg/mL (≈ 2.69 µM) | 4 µg/mL (≈ 10.8 µM) | 64 µg/mL (≈ 172 µM)
